Measured values reported in US20100087385A1 (priority 2006, published 2010).

Legend:
[1] = tested on: IBD mice (colon injury induced by acetic acid); test: Experiment II: acetic acid induced IBD in mice, ammonium glycyrrhizinate; type: in vivo, Kuming mice; conditions: for GSH / MPO / MDA / SOD: colon homogenate; for GSH / MPO / MDA / SOD / CMDI: once per day, 10 days; for GSH: normal 0.58 ± 0.12, model 0.16 ± 0.09; for MPO: normal 3.37 ± 0.31, model 1.33 ± 0.83; for MDA: normal 10.58 ± 2.74, model 26.2 ± 5.5; for SOD: normal 707 ± 105, model 309 ± 68; for CMDI: normal 0.73 ± 0.03, model 1.75 ± 0.35
Description: Kuming mice were randomly distributed into seven groups consisting of normal control, model group, Adis positive control, monoammonium glycyrrhizinate oral administration, diammonium glycyrrhizinate oral administration, triammonium glycyrrhizinate oral administration, diammonium glycyrrhizinate injection. In Adis group, mice were provided Adis 600 mg/kg after enema, once a day. In glycyrrhizinate oral administration groups, 14 mg/kg dose of individual glycyrrhizinate was applied once per day. Normal control and model group were orally given by equal amount of normal saline daily. After seven days drug treatment, all mice except for normal control were stimulated with acetic acid to induce IBD. On day six, starvation was applied after drug treatment to all groups. On day seven, after drug treatment, mice were put to sleep with ether and the procedure of enema was performed before injecting 0.1 ml of 6% acitic acid using polyethylene tubings. Acitic acid was injected into mice through anus in depth about 1.5 cm to induce IBD. One minute after the actic acid injection, wash twice with normal saline and let the animals lie down and awake naturally. For normal control, mice were treated with equal amount of saline. Drug treatment continued to day 10 to all groups. 24 hours after the last drug treatment, the mice were sacrificed. Take and weight the whole colon, score colon organ index, and evaluate CMDI. Colon tissues were homogenized in Tris buffer and adjusted to the concentration 5% for MPO, MDA, SOD, and GSH tests.
(§1) CMDI: Cut open the mouse along the mesentery and take the whole colon. Observe peritoneal adhesion, colon ulcer, and congestion. The standard of evaluation was listed on Table 1.
(§2) Myeloperoxidase (MPO): Carefully weight tissue samples, use Tris buffer (weight to volume ratio 1:19) to prepare 5% homogenization solution by high-speed homogenizer. Handle all steps on ice. Protein concentration was determined by method Lowry and use MPO test kit.
(§3) Lipid peroxidase (MDA): TBA was used to detect MDA in the homogenization solution
Superoxide dismutase (SOD): Method of pyrogallol was used to detect the activity of SOD in the homogenization solution
(§4) Glutathione (GSH): Follow the product insert coming with the test kit to detect GSH in the samples
The total score is combined with both parts of A and B.

[2] = tested on: IBD mice (colon injury induced by acetic acid); test: Experiment I: acetic acid induced IBD in mice, glycyrrhizin and glycyrrhetinic acid; type: in vivo, KuMing mice; conditions: glycyrrhizin 105 mg/kg, glycyrrhetinic acid 72 mg/kg; for Inflammatory score / CMDI / GSH / MPO / MDA / SOD: once per day, 10 days; for Inflammatory score: normal 0, model 7.50 ± 0.7; for CMDI: normal 0.73 ± 0.03, model 1.75 ± 0.35; for GSH / MPO / MDA / SOD: colon homogenate; for GSH: normal 0.58 ± 0.12, model 0.16 ± 0.09; for MPO: normal 3.37 ± 0.31, model 1.33 ± 0.83; for MDA: normal 10.58 ± 2.74, model 26.2 ± 5.5; for SOD: normal 707 ± 105, model 309 ± 68; for CMDI of IBD mice decreased / MPO activity increased / inflammatory scores were lowered: once per day for ten days
Description: In Adis group, mice were provided Adis 600 mg/kg afer enema, once per day. Normal control and model groups were orally given with equal amount of normal saline daily. After seven days drug treatment, all mice except for normal control were stimulated with acetic acid to induce IBD. On day six, starvation was applied after drug treatment to all groups. On day seven, after drug treatment, mice were put to sleep with ether and the procedure of enema was performed before injecting 0.1 ml of 6% acitic acid using polyethylene tubings. Acitic acid was injected into mice through anus in depth about 1.5 cm to induce IBD. One minute after the actic acid injection, wash twice with normal saline and let the animals lay down and awake naturally. For normal control, mice were treated with equal amount of saline.
Drug treatment continued to day 10 to all groups. 24 hours after the last drug treatment, the mice were sacrificed. Take and weight the whole colon, score colon organ index, and evaluate CMDI. Colon tissues were homogenized in Tris buffer and adjusted to the concentration 5% for MPO, MDA, SOD, and GSH tests.
as §1, §2, §3
Superoxide dismutas (SOD): Method of pyrogallol was used to detect the activity of SOD in the homogenization solution
as §4
The total score is combined with both parts of A with B.

[3] = oral 14 mg/kg, once per day for ten days
[4] = injection (IP.) 14 mg/kg, once per day for ten days

CC1(C)[C@@H](O[C@H]2O[C@H](C(=O)O)[C@@H](O)[C@H](O)[C@H]2O[C@@H]2O[C@H](C(=O)O)[C@@H](O)[C@H](O)[C@H]2O)CC[C@]2(C)[C@H]3C(=O)C=C4[C@@H]5C[C@@](C)(C(=O)O)CC[C@]5(C)CC[C@@]4(C)[C@]3(C)CC[C@@H]12 [triammonium glycyrrhizinate]
GSH ([1]; oral 14 mg/kg): 0.26 ± 0.09^ΔΔ mg/mgpro. | MPO ([1]; oral 14 mg/kg): 1.59 ± 0.94^ΔΔ U/mgpro. | MDA ([1]; oral 14 mg/kg): 16.88 ± 5.97^ΔΔ nmol/mgpro. | SOD ([1]; oral 14 mg/kg): 368 ± 79^ΔΔ U/mgpro. | CMDI of IBD mice decreased [1, 3]: 14.9% | MPO activity increased [1, 3]: 0.20 × | inflammatory scores were lowered [1, 3]: 1.5 × | CMDI ([1]; oral 14 mg/kg): 1.49 ± 0.08^ΔΔ g/100 g

CC1(C)[C@@H](O[C@H]2O[C@H](C(=O)O)[C@@H](O)[C@H](O)[C@H]2O[C@@H]2O[C@H](C(=O)O)[C@@H](O)[C@H](O)[C@H]2O)CC[C@]2(C)[C@H]3C(=O)C=C4[C@@H]5C[C@@](C)(C(=O)O)CC[C@]5(C)CC[C@@]4(C)[C@]3(C)CC[C@@H]12.N.N [diammonium glycyrrhizinate]
GSH ([1]; injection 14 mg/kg): 0.27 ± 0.13^ΔΔ mg/mgpro. | MPO ([1]; injection 14 mg/kg): 3.55 ± 0.45^ΔΔ U/mgpro. | MDA ([1]; injection 14 mg/kg): 7.85 ± 3.55^ΔΔ nmol/mgpro. | SOD ([1]; injection 14 mg/kg): 533 ± 101^ΔΔ U/mgpro. | GSH ([1]; oral 14 mg/kg): 0.49 ± 0.14^ΔΔ mg/mgpro. | MPO ([1]; oral 14 mg/kg): 2.93 ± 0.26^ΔΔ U/mgpro. | MDA ([1]; oral 14 mg/kg): 8.32 ± 5.04^ΔΔ nmol/mgpro. | SOD ([1]; oral 14 mg/kg): 505 ± 132^ΔΔ U/mgpro. | CMDI ([1]; injection 14 mg/kg): 0.97 ± 0.18^ΔΔ g/100 g | CMDI of IBD mice decreased [1, 4]: 45.7% | MPO activity increased [1, 4]: 1.67 × | inflammatory score was lowered [1, 4]: 2.75 × | CMDI of IBD mice decreased [1, 3]: 39.4% | MPO activity increased [1, 3]: 1.20 × | inflammatory scores were lowered [1, 3]: 1.73 × | CMDI ([1]; oral 14 mg/kg): 1.06 ± 0.31^ΔΔ g/100 g

CC1(C)[C@@H](O[C@H]2O[C@H](C(=O)O)[C@@H](O)[C@H](O)[C@H]2O[C@@H]2O[C@H](C(=O)O)[C@@H](O)[C@H](O)[C@H]2O)CC[C@]2(C)[C@H]3C(=O)C=C4[C@@H]5C[C@@](C)(C(=O)O)CC[C@]5(C)CC[C@@]4(C)[C@]3(C)CC[C@@H]12.N [monoammonium glycyrrhizinate]
GSH ([1]; oral 14 mg/kg): 0.32 ± 0.12^ΔΔ mg/mgpro. | MPO ([1]; oral 14 mg/kg): 2.99 ± 0.26^ΔΔ U/mgpro. | MDA ([1]; oral 14 mg/kg): 16.14 ± 5.81^ΔΔ nmol/mgpro. | SOD ([1]; oral 14 mg/kg): 412 ± 112^ΔΔ U/mgpro. | CMDI of IBD mice decreased [1, 3]: 14.3% | MPO activity increased [1, 3]: 1.25 × | inflammatory scores were lowered [1, 3]: 1.5 × | CMDI ([1]; oral 14 mg/kg): 1.50 ± 0.03^Δ g/100 g

CC1(C)[C@@H](O[C@H]2O[C@H](C(=O)O)[C@@H](O)[C@H](O)[C@H]2O[C@@H]2O[C@H](C(=O)O)[C@@H](O)[C@H](O)[C@H]2O)CC[C@]2(C)[C@H]3C(=O)C=C4[C@@H]5C[C@@](C)(C(=O)O)CC[C@]5(C)CC[C@@]4(C)[C@]3(C)CC[C@@H]12 [Glycyrrhizin, glycyrrhizic acid]
Inflammatory score ([2]; IP injection): 1.5 ± 0.41^ΔΔ | Inflammatory score ([2]; IP injection, listed as glycyrrhizin): 1.5 | CMDI ([2]; IP injection): 0.88 ± 0.18^ΔΔ g/100 g | GSH ([2]; IP injection): 0.36 ± 0.09^ΔΔ mg/mgpro. | MPO ([2]; IP injection): 5.59 ± 0.94^ΔΔ U/mgpro. | MDA ([2]; IP injection): 5.08 ± 1.91^ΔΔ nmol/mgpro. | SOD ([2]; IP injection): 467 ± 49^ΔΔ U/mgpro. | GSH ([2]; oral): 0.33 ± 0.22^ΔΔ mg/mgpro. | MPO ([2]; oral): 5.09 ± 0.29^ΔΔ U/mgpro. | MDA ([2]; oral): 6.04 ± 0.89^ΔΔ nmol/mgpro. | SOD ([2]; oral): 425 ± 12^ΔΔ U/mgpro. | CMDI of IBD mice decreased ([2]; injection (IP)): 98.86% | MPO activity increased ([2]; injection (IP)): 3.20 × | inflammatory scores were lowered ([2]; injection (IP)): 4 × | CMDI of IBD mice decreased ([2]; oral): 82.3% | MPO activity increased ([2]; oral): 2.83 × | inflammatory scores were lowered ([2]; oral): 4 × | Inflammatory score ([2]; oral): 1.5 ± 0.31^ΔΔ | Inflammatory score ([2]; oral, listed as glycyrrhizin): 1.5 | CMDI ([2]; oral): 0.96 ± 0.03^ΔΔ g/100 g
